≈ marks a conversion by molar mass, not a printed value.
Tested on: Escherichia coli
Experiment: minimum inhibitory concentration (MIC)
Method: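 Broth microdilution MIC (Sensititre BOPO7F bovine plate, CLSI methods) of 19 antimicrobials against field isolates of P. multocida, M. haemolytica, H. somni (deep nasopharyngeal swabs) and E. coli, Enterococcus spp. (rectal swabs) from weaned dairy heifers. Incubation 16-24 h at 35 C. MIC is the lowest concentration preventing visible growth. Values with <= or > lie at the tested range limits. Trimethoprim-sulfamethoxazole is given as the trimethoprim component of a 1:19 mixture.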

C=C[C@]1(C)C[C@@H](OC(=O)CSCCN(CC)CC)[C@]2(C)[C@H](C)CC[C@]3(CCC(=O)[C@H]32)[C@@H](C)[C@@H]1O [Tiamulin]
Conditions	minimum inhibitory concentration [µg/mL]
isolate (source animal id): 8	32 (≈ 64.8 µM)
isolate (source animal id): 9	> 32
isolate (source animal id): 10	> 32
isolate (source animal id): 11	> 32
isolate (source animal id): 12	> 32
isolate (source animal id): 13	> 32
isolate (source animal id): 14	> 32
isolate (source animal id): 15	> 32
isolate (source animal id): 16	> 32
isolate (source animal id): 98	> 32
isolate (source animal id): 99	> 32
isolate (source animal id): 100	32 (≈ 64.8 µM)
isolate (source animal id): 101	> 32
isolate (source animal id): 102	> 32
isolate (source animal id): 103	> 32
isolate (source animal id): 104	> 32
isolate (source animal id): 105	> 32
isolate (source animal id): 106	> 32
isolate (source animal id): 107	> 32
isolate (source animal id): 108	> 32
isolate (source animal id): 109	> 32
isolate (source animal id): 110	> 32
isolate (source animal id): 111	> 32
isolate (source animal id): 112	32 (≈ 64.8 µM)
isolate (source animal id): 113	> 32
isolate (source animal id): 114	> 32
isolate (source animal id): 115	> 32
isolate (source animal id): 116	32 (≈ 64.8 µM)
isolate (source animal id): 117	> 32
isolate (source animal id): 118	> 32
isolate (source animal id): 119	> 32
isolate (source animal id): 120	> 32
isolate (source animal id): 121	> 32
isolate (source animal id): 122	> 32
isolate (source animal id): 123	> 32
isolate (source animal id): 124	32 (≈ 64.8 µM)
isolate (source animal id): 125	16 (≈ 32.4 µM)
isolate (source animal id): 126	> 32
isolate (source animal id): 127	> 32
isolate (source animal id): 128	32 (≈ 64.8 µM)
isolate (source animal id): 129	32 (≈ 64.8 µM)
isolate (source animal id): 130	> 32
isolate (source animal id): 131	> 32
isolate (source animal id): 132	> 32
isolate (source animal id): 133	> 32
isolate (source animal id): 134	> 32
isolate (source animal id): 135	> 32
isolate (source animal id): 136	> 32
isolate (source animal id): 137	> 32
isolate (source animal id): 138	32 (≈ 64.8 µM)
isolate (source animal id): 139	> 32
isolate (source animal id): 140	> 32
isolate (source animal id): 141	> 32
isolate (source animal id): 142	> 32
isolate (source animal id): 143	> 32
isolate (source animal id): 144	> 32
isolate (source animal id): 145	> 32
isolate (source animal id): 146	> 32
isolate (source animal id): 147	32 (≈ 64.8 µM)
isolate (source animal id): 148	> 32
isolate (source animal id): 149	> 32
isolate (source animal id): 150	> 32
isolate (source animal id): 151	> 32
isolate (source animal id): 152	32 (≈ 64.8 µM)
isolate (source animal id): 153	> 32
isolate (source animal id): 154	> 32
isolate (source animal id): 155	32 (≈ 64.8 µM)
isolate (source animal id): 156	> 32
isolate (source animal id): 157	> 32
isolate (source animal id): 158	> 32
isolate (source animal id): 159	> 32
isolate (source animal id): 160	> 32
isolate (source animal id): 161	> 32
isolate (source animal id): 162	> 32
isolate (source animal id): 163	> 32
isolate (source animal id): 164	> 32
isolate (source animal id): 165	> 32
isolate (source animal id): 166	> 32
isolate (source animal id): 167	> 32
isolate (source animal id): 168	32 (≈ 64.8 µM)
isolate (source animal id): 169	> 32
isolate (source animal id): 170	32 (≈ 64.8 µM)
isolate (source animal id): 171	> 32
isolate (source animal id): 172	> 32
isolate (source animal id): 173	> 32
isolate (source animal id): 174	> 32
isolate (source animal id): 175	> 32
isolate (source animal id): 176	> 32
isolate (source animal id): 177	> 32
isolate (source animal id): 178	> 32
isolate (source animal id): 179	> 32
isolate (source animal id): 180	> 32
isolate (source animal id): 181	> 32
isolate (source animal id): 182	> 32
isolate (source animal id): 183	> 32
isolate (source animal id): 184	> 32
isolate (source animal id): 185	> 32
isolate (source animal id): 186	> 32
isolate (source animal id): 187	32 (≈ 64.8 µM)
isolate (source animal id): 188	> 32

CC[C@H]1OC(=O)C[C@@H](O)[C@H](C)[C@@H](O[C@@H]2O[C@H](C)[C@@H](O)[C@H](N(C)C)[C@H]2O)[C@@H](CCN2CCCCC2)C[C@@H](C)C(=O)/C=C/C(C)=C/[C@@H]1CN1CCCCC1 [Tildipirosin]
Conditions	minimum inhibitory concentration [µg/mL]
isolate (source animal id): 8	4 (≈ 5.45 µM)
isolate (source animal id): 9	16 (≈ 21.8 µM)
isolate (source animal id): 10	8 (≈ 10.9 µM)
isolate (source animal id): 11	4 (≈ 5.45 µM)
isolate (source animal id): 12	4 (≈ 5.45 µM)
isolate (source animal id): 13	4 (≈ 5.45 µM)
isolate (source animal id): 14	4 (≈ 5.45 µM)
isolate (source animal id): 15	4 (≈ 5.45 µM)
isolate (source animal id): 16	4 (≈ 5.45 µM)
isolate (source animal id): 98	4 (≈ 5.45 µM)
isolate (source animal id): 99	4 (≈ 5.45 µM)
isolate (source animal id): 100	2 (≈ 2.72 µM)
isolate (source animal id): 101	4 (≈ 5.45 µM)
isolate (source animal id): 102	4 (≈ 5.45 µM)
isolate (source animal id): 103	4 (≈ 5.45 µM)
isolate (source animal id): 104	4 (≈ 5.45 µM)
isolate (source animal id): 105	4 (≈ 5.45 µM)
isolate (source animal id): 106	16 (≈ 21.8 µM)
isolate (source animal id): 107	8 (≈ 10.9 µM)
isolate (source animal id): 108	4 (≈ 5.45 µM)
isolate (source animal id): 109	4 (≈ 5.45 µM)
isolate (source animal id): 110	4 (≈ 5.45 µM)
isolate (source animal id): 111	4 (≈ 5.45 µM)
isolate (source animal id): 112	4 (≈ 5.45 µM)
isolate (source animal id): 113	4 (≈ 5.45 µM)
isolate (source animal id): 114	4 (≈ 5.45 µM)
isolate (source animal id): 115	8 (≈ 10.9 µM)
isolate (source animal id): 116	4 (≈ 5.45 µM)
isolate (source animal id): 117	> 16
isolate (source animal id): 118	8 (≈ 10.9 µM)
isolate (source animal id): 119	8 (≈ 10.9 µM)
isolate (source animal id): 120	4 (≈ 5.45 µM)
isolate (source animal id): 121	4 (≈ 5.45 µM)
isolate (source animal id): 122	4 (≈ 5.45 µM)
isolate (source animal id): 123	4 (≈ 5.45 µM)
isolate (source animal id): 124	2 (≈ 2.72 µM)
isolate (source animal id): 125	≤ 1
isolate (source animal id): 126	4 (≈ 5.45 µM)
isolate (source animal id): 127	8 (≈ 10.9 µM)
isolate (source animal id): 128	4 (≈ 5.45 µM)
isolate (source animal id): 129	4 (≈ 5.45 µM)
isolate (source animal id): 130	4 (≈ 5.45 µM)
isolate (source animal id): 131	2 (≈ 2.72 µM)
isolate (source animal id): 132	4 (≈ 5.45 µM)
isolate (source animal id): 133	4 (≈ 5.45 µM)
isolate (source animal id): 134	4 (≈ 5.45 µM)
isolate (source animal id): 135	4 (≈ 5.45 µM)
isolate (source animal id): 136	4 (≈ 5.45 µM)
isolate (source animal id): 137	4 (≈ 5.45 µM)
isolate (source animal id): 138	4 (≈ 5.45 µM)
isolate (source animal id): 139	2 (≈ 2.72 µM)
isolate (source animal id): 140	4 (≈ 5.45 µM)
isolate (source animal id): 141	4 (≈ 5.45 µM)
isolate (source animal id): 142	4 (≈ 5.45 µM)
isolate (source animal id): 143	8 (≈ 10.9 µM)
isolate (source animal id): 144	4 (≈ 5.45 µM)
isolate (source animal id): 145	4 (≈ 5.45 µM)
isolate (source animal id): 146	8 (≈ 10.9 µM)
isolate (source animal id): 147	2 (≈ 2.72 µM)
isolate (source animal id): 148	4 (≈ 5.45 µM)
isolate (source animal id): 149	4 (≈ 5.45 µM)
isolate (source animal id): 150	4 (≈ 5.45 µM)
isolate (source animal id): 151	4 (≈ 5.45 µM)
isolate (source animal id): 152	4 (≈ 5.45 µM)
isolate (source animal id): 153	4 (≈ 5.45 µM)
isolate (source animal id): 154	4 (≈ 5.45 µM)
isolate (source animal id): 155	4 (≈ 5.45 µM)
isolate (source animal id): 156	4 (≈ 5.45 µM)
isolate (source animal id): 157	4 (≈ 5.45 µM)
isolate (source animal id): 158	4 (≈ 5.45 µM)
isolate (source animal id): 159	4 (≈ 5.45 µM)
isolate (source animal id): 160	4 (≈ 5.45 µM)
isolate (source animal id): 161	2 (≈ 2.72 µM)
isolate (source animal id): 162	4 (≈ 5.45 µM)
isolate (source animal id): 163	4 (≈ 5.45 µM)
isolate (source animal id): 164	4 (≈ 5.45 µM)
isolate (source animal id): 165	4 (≈ 5.45 µM)
isolate (source animal id): 166	4 (≈ 5.45 µM)
isolate (source animal id): 167	8 (≈ 10.9 µM)
isolate (source animal id): 168	4 (≈ 5.45 µM)
isolate (source animal id): 169	4 (≈ 5.45 µM)
isolate (source animal id): 170	4 (≈ 5.45 µM)
isolate (source animal id): 171	4 (≈ 5.45 µM)
isolate (source animal id): 172	4 (≈ 5.45 µM)
isolate (source animal id): 173	4 (≈ 5.45 µM)
isolate (source animal id): 174	4 (≈ 5.45 µM)
isolate (source animal id): 175	8 (≈ 10.9 µM)
isolate (source animal id): 176	8 (≈ 10.9 µM)
isolate (source animal id): 177	4 (≈ 5.45 µM)
isolate (source animal id): 178	4 (≈ 5.45 µM)
isolate (source animal id): 179	4 (≈ 5.45 µM)
isolate (source animal id): 180	4 (≈ 5.45 µM)
isolate (source animal id): 181	16 (≈ 21.8 µM)
isolate (source animal id): 182	8 (≈ 10.9 µM)
isolate (source animal id): 183	4 (≈ 5.45 µM)
isolate (source animal id): 184	8 (≈ 10.9 µM)
isolate (source animal id): 185	4 (≈ 5.45 µM)
isolate (source animal id): 186	4 (≈ 5.45 µM)
isolate (source animal id): 187	2 (≈ 2.72 µM)
isolate (source animal id): 188	4 (≈ 5.45 µM)

From the supplement of paper PMC8612539
